{
  "source": "patent US7122668B2",
  "about": "“Platinum complexes and their use in therapy” (priority 2002, dated 2006)",
  "key": {"CH1cisR": {"tested_on": "CH1cisR", "experiment": "Microculture tetrazolium (MTS) cell survival assay", "format": "cell-based", "procedure": "(§1) Cytotoxicity of the synthesized complexes was also tested by the MTS method^(21). Accordingly, the compounds were incubated for 24 hours with the corresponding cell lines and the cell survival in compound-treated cultures was evaluated.\n(§2) The complexes were incubated for 24 hours with the above mentioned cell lines and the cell survival in compound-treated cultures was evaluated by the (microculture tetrazolium) MTS method as previously reported."}, "A2780cisR": {"tested_on": "A2780cisR", "experiment": "Microculture tetrazolium (MTS) cell survival assay", "format": "cell-based", "procedure": "as §1, §2"}, "[1]": {"tested_on": "caspase-3 in OV-1063 cells", "experiment": "EnzChek Caspase-3 assay", "format": "cell-based, human", "description": "(§3) (2) By the EnzChektm Caspase-3 Assay Kit (Molecular probes, Eugene, Oreg.). This Kit allows the detection of apoptosis by assaying for increases in caspase-3 and other DEVD-specific protease activities (e.g., caspase-7). The basis for the assay is rodamine 110 bis-(N-CBZ-aspartil-L-glutarnyl-L-valyl-aspartic acid amide) (Z-DEVD-R110). This substrate is a bisamide derivative of rhodamine 110(R110) containing DEVD peptides covalently linked to each of R110's amino groups. Upon enzymatic cleavage, the non-fluorescent bisamide substrate converted to the fluorescent R110, which can be quantified by fluorescence microplate reader using excitation at 485±10 nm and emission detection at 535±10 nm.\n(§4) (12) (5 μM and 7.5 μM, respectively) for 5 or 16 hr. Both “induced” and “control” cells were then harvested and lysed. Enzyme reactions were performed in 96-well plates with 50 μg of cytosolic proteins (55 minutes of incubation) and with a final concentration of 25 μM Z-DEVD-R110 substrate as described in the kit protocol."}, "caspase-3 in C-26 cells": {"tested_on": "caspase-3 in C-26 cells", "experiment": "EnzChek Caspase-3 assay", "format": "cell-based, human", "conditions": "4.5 μM complex, cisplatin 1.5 μM, 5 or 16 hrs", "description": "as §3, §4"}, "plasmid pS16-hGH DNA": {"tested_on": "plasmid pS16-hGH DNA", "experiment": "Determination of Pt-DNA adducts by EtBr fluorescence", "format": "binding", "conditions": "DNA modified 24 hr", "procedure": "A plasmid (4.8 kbp) containing a gene coding for human growth hormone, plasmid pS16-hGH, was prepared as previously described^(23). The freshly prepared DNA was analyzed by agarose gel (1%) electrophoresis using post-staining with SYBR Green I fluorescent dye (Molecular Probes, Eugene, Oreg.). […] The ratio of absorbance at 260 nm to that at 280 nm was always between 1.8 and 1.9.\nDNA were modified by the platinum complexes in 10 mM NaClO4 (pH 7.0) at 37° C. in the dark for 24 hr. Measurements of EtBr fluorescence were performed on an LS50B luminescence spectrometer (Perkin Elmer, Norwalk, Conn.). Fluorescence measurements of DNA modified by platinum in the presence of EtBr were performed using the excitation wavelength of 546 nm (slit 10 run) and emission wavelength of 590 nm (slit 10 nm) at 25° C. The concentrations were 0.01 mg/ml for DNA and 0.04 mg/ml for EtBr, which corresponded to the saturation of all intercalation sites of EtBr in DNA.\nEtBr, as the fluorescent probe, was used to distinguish between perturbations induced in DNA by adducts of platinum (II) compounds^(14). Binding of EtBr by intercalation is blocked in a stoichiometric manner by formation of the bifunctional adducts, as of Cis-Pt, which results in a loss of fluorescence intensity. On the other hand, formation of monofunctional adducts results only in a slight decrease of EtBr fluorescence."}, "C-26 cells [2]": {"tested_on": "C-26 cells", "experiment": "Determination of Pt-DNA adducts by FAAS", "format": "cell-based, human"}, "OV-1063 cells [3]": {"tested_on": "OV-1063 cells", "experiment": "Determination of Pt-DNA adducts by FAAS", "format": "cell-based, human"}, "C-26 cells [4]": {"tested_on": "C-26 cells", "experiment": "Platinum complex intracellular accumulation (FAAS)", "format": "cell-based, human", "conditions": "C-26, 24 hr"}, "OV-1063 cells [5]": {"tested_on": "OV-1063 cells", "experiment": "Platinum complex intracellular accumulation (FAAS)", "format": "cell-based, human", "conditions": "OV-1063, 24 hr"}, "C-26 cells [6]": {"tested_on": "C-26 cells", "format": "cell-based", "conditions": "cell lines of Table 1", "procedure": "A human ovarian carcinoma cell line (OV-1063), established at the Hadassah University hospital and human colon carcinoma cell line (C-26) were maintained in RPMI-1640 medium supplemented with 10% FCS, antibiotics and glutamine. All culture medium components were purchased from Biological Industries (Beit-HaEmek, Israel). Both cell lines were maintained at 37° C. in a water-jacketed CO2 incubator.\nCytotoxicity of the synthesized complexes was tested by the methylene blue (MB) staining assay^(19). A fixed number of exponentially growing cells in 200 μl medium were plated in 96-microwell, flat-bottomed plates. For each of the complexes tested, 4 well were used. Following 24 hr in culture, 20 μl of different concentration of the complexes were added to each well containing untreated cells. Normal saline was added to the controls. Cells were exposed to complexes for 4, 24, or 72 hr. At the end of exposure for a fixed time interval, the treated cells as well as parallel control cells were washed and incubation was continued in fresh medium until termination of the experiment. Following 72 hr of growth, cells were fixed by adding 50 μl of 2.5% of glutaraldehyde to each well for 15 min. Fixed cells were rinsed 10 times with fresh de-ionized water and once with borate buffer (0.1 M, pH=8.5), dried and stained with MB (100 μl of 1% solution in 0.1 M borate buffer, pH=8.5) for 1 hr at room temperature. Stained cells were rinsed thoroughly with de-ionized water to remove any non-cell-bound die and then dried. The MB bound to the fixed cells was extracted by incubation at 37° C. with 200 μl of 0.1N HCl for 1 hr, and the net optical density (OD) of the die in each well was determined by a plate spectrophotometer (Labsystems Multyskan BICHROMATIC, Finland) at 620 nm."}},
  "data": [
    {"smiles": "C1CCNCC1.Cc1ccncc1.[Cl][Pt][Cl]", "note": "[Complex 5, trans-[PtCl2(4-picoline)(piperidine)]]", "values": [
      {"measurement": "IC50", "setting": "CH1cisR; 24 hours incubation, MTS", "result": "169 ± 9", "unit": "µM"},
      {"measurement": "resistance factor (IC50 resistant/IC50 sensitive)", "setting": "CH1cisR; CH1cisR/CH1", "result": "(6.5)"},
      {"measurement": "IC50", "setting": "A2780cisR; 24 hours incubation, MTS", "result": "135 ± 7", "unit": "µM"},
      {"measurement": "resistance factor (IC50 resistant/IC50 sensitive)", "setting": "A2780cisR; A2780cisR/A2780", "result": 15},
      {"measurement": "caspase-3 activation, increase in fluorescence vs untreated cells", "setting": "[1]; 5 hr, 6.5 μM piperidine complex or 7.5 μM piperazine complex", "result": "~2", "unit": "fold"},
      {"measurement": "caspase-3 activation, increase in fluorescence vs untreated cells", "setting": "[1]; 16 hr", "result": 3, "unit": "fold"},
      {"measurement": "caspase-3 fluorescent signal", "setting": "caspase-3 in C-26 cells", "result": "no fluorescent signal"},
      {"measurement": "decrease of EtBr fluorescence intensity by DNA adducts", "setting": "plasmid pS16-hGH DNA", "result": "lower than that of cisplatin, however, greater than that of transplatin"},
      {"measurement": "Pt-DNA adducts", "setting": "C-26 cells [2]; C-26, 24 hr", "result": 51, "unit": "pmol Pt/50 μg DNA"},
      {"measurement": "DNA platination relative to Cis-Pt", "setting": "C-26 cells [2]; C-26 cells", "result": "the same"},
      {"measurement": "Pt-DNA adducts", "setting": "OV-1063 cells [3]; OV-1063, 24 hr", "result": 41, "unit": "pmol Pt/50 μg DNA"},
      {"measurement": "DNA platination relative to Cis-Pt", "setting": "OV-1063 cells [3]; OV-1063 cells", "result": "the same"},
      {"measurement": "Penetration to cells", "setting": "C-26 cells [4]", "result": 14974, "unit": "pmol Pt/1 * 10^6 cells"},
      {"measurement": "Penetration to cells", "setting": "OV-1063 cells [5]", "result": 2092, "unit": "pmol Pt/1 * 10^6 cells"},
      {"measurement": "folds less active than cisplatin", "setting": "C-26 cells [6]", "result": 3, "unit": "folds"}
    ]}
  ]
}
